In ChEMBL document CHEMBL1157748, “4-hydroxy-1,2,5-oxadiazol-3-yl moiety as bioisoster of the carboxy function. Synthesis, ionization constants, and molecular pharmacological characterization at ionotropic glutamate receptors of compounds related to glutamate and its homologues” (J Med Chem, 2010):
The source made the active and inactive calls. The rule behind the calls is not given here.

Legend:
Glutamate NMDA receptor [1] = experiment: Displacement of [3H]CGP39653 from NMDA receptor in Sprague-Dawley rat brain membranes; type: cell membranes, Membrane
[2] = Displacement of [3H]AMPA from AMPA receptor in Sprague-Dawley rat brain membranes; type: cell membranes, Membrane
Glutamate receptor 2 [3] = molecular target: Glutamate receptor 2 (Homo sapiens, UniProt P42262); experiment: Activity at recombinant iGluR2 receptor expressed in Xenopus laevis oocytes using holding potential of -15 to -20 mV by TEVC electrophysiology; type: cell-based, Oocyte
Glutamate receptor 2 (Homo sapiens, UniProt P42262), sequence (P42262 whole entry): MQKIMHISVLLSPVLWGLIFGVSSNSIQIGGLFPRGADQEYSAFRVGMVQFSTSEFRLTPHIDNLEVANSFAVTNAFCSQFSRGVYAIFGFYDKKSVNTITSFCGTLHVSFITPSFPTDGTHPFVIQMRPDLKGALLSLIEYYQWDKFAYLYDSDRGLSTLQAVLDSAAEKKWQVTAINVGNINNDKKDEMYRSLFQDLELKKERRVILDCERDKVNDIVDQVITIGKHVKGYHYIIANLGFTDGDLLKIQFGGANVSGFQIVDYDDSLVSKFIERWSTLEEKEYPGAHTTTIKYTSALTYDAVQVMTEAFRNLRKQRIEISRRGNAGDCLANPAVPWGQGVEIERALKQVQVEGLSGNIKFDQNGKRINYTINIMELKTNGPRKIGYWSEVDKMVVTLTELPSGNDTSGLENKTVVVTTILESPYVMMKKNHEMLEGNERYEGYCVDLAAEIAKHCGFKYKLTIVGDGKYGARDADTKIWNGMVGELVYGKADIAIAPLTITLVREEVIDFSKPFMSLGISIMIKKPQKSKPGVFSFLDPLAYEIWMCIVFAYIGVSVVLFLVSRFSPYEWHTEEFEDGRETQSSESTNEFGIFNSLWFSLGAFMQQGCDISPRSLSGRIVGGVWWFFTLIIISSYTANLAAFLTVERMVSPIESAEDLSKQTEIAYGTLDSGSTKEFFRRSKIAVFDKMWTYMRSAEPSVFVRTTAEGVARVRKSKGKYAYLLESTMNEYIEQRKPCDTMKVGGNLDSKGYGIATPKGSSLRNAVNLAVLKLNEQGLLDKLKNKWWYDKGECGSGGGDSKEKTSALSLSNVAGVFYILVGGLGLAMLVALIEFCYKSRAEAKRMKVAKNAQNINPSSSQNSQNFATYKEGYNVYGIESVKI

[4] = molecular target: T1, Glutamate NMDA receptor; Grin1/Grin2a (Rattus norvegicus, UniProt P35439+Q00959); experiment: Agonist activity at rat NR1/NR2A receptor expressed in BHK21 cells assessed as change in intracellular calcium levels at 1000 uM by FLIPR assay; type: functional, cell-based; conditions: bhk-21
[5] = molecular target: Glutamate receptor ionotropic, kainate 3 (Rattus norvegicus, UniProt P42264); experiment: Displacement of [3H]SYM2081 from rat iGluR7 receptor expressed in Sf9 cells baculovirus system after 1 to 2 hrs by liquid scintillation counting
Glutamate receptor ionotropic, kainate 3, sequence (P42264 whole entry): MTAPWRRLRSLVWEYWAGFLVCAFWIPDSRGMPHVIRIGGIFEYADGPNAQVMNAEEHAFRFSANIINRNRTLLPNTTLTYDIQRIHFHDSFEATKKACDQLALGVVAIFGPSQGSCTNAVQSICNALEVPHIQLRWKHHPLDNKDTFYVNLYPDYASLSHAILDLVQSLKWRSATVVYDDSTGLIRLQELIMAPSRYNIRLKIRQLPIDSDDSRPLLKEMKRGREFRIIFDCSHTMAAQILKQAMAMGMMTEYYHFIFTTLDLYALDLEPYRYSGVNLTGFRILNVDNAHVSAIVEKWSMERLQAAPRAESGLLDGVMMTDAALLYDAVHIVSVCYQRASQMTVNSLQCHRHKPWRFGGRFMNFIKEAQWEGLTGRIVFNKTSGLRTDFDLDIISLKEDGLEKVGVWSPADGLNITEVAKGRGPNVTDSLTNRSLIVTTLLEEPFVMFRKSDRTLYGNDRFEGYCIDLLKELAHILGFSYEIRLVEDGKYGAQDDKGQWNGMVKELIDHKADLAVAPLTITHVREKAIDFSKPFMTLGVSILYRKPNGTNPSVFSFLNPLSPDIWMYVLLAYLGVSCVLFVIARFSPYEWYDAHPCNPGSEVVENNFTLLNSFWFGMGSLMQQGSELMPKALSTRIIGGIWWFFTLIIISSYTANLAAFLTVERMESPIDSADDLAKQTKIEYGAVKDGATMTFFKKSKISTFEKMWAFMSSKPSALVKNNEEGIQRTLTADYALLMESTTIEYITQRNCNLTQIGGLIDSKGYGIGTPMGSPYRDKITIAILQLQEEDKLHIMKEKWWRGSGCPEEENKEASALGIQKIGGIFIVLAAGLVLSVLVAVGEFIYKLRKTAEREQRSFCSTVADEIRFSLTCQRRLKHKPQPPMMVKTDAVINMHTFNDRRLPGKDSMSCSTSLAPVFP

[6] = molecular target: Glutamate receptor ionotropic, kainate 1 (Rattus norvegicus, UniProt P22756); experiment: biochemical
Glutamate receptor ionotropic, kainate 1, sequence (P22756 whole entry): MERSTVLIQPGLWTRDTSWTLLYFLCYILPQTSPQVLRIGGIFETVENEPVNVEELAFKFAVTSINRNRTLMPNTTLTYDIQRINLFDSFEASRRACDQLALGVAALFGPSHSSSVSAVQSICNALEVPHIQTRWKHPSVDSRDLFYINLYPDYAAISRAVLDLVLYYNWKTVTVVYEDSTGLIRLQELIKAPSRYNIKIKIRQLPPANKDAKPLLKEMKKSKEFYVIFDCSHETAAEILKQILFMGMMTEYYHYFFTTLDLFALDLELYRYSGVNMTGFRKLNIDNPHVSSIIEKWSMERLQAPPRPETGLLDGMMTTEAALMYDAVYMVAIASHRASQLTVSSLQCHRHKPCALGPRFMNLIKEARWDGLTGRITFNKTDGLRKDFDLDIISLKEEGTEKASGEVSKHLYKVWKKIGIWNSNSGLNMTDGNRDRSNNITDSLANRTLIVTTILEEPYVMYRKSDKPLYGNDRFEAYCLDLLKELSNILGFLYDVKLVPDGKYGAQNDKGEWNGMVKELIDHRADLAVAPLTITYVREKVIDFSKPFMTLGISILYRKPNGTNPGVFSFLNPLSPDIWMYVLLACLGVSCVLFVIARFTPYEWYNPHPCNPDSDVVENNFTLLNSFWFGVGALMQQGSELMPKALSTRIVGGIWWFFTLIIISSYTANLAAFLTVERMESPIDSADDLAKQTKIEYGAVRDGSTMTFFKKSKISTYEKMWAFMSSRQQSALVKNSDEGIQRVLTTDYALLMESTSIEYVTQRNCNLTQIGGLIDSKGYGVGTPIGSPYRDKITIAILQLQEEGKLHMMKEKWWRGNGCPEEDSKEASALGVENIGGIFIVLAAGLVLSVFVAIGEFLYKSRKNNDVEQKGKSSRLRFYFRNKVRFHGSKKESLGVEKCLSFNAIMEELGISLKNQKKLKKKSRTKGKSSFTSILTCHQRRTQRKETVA
Description: Displacement of [3H]SYM2081 from rat iGluR5 receptor expressed in Sf9 cells baculovirus system after 1 to 2 hrs by liquid scintillation counting

[7] = molecular target: T1, Glutamate NMDA receptor; Grin1/Grin2a; experiment: Antagonist activity at rat NR1/NR2A receptor expressed in BHK21 cells assessed as inhibition of (S)-Glu-induced intracellular calcium levels by FLIPR assay; type: functional, cell-based, BHK-21
Glutamate receptor 2 [8] = molecular target: Glutamate receptor 2 (Rattus norvegicus, UniProt P19491); experiment: Displacement of [3H]AMPA from rat iGluR2 receptor expressed in Sf9 cells baculovirus system after 1 to 2 hrs by liquid scintillation counting
Glutamate receptor 2 (Rattus norvegicus, UniProt P19491), sequence (P19491 whole entry): as the sequence (P42262 whole entry) above, with M191T, T291A, R764G, A852P counted along it

[9] = molecular target: Glutamate receptor ionotropic, kainate 2 (Rattus norvegicus, UniProt P42260); experiment: Displacement of [3H]SYM2081 from rat iGluR6 receptor expressed in Sf9 cells baculovirus system after 1 to 2 hrs by liquid scintillation counting
Glutamate receptor ionotropic, kainate 2, sequence (P42260 whole entry): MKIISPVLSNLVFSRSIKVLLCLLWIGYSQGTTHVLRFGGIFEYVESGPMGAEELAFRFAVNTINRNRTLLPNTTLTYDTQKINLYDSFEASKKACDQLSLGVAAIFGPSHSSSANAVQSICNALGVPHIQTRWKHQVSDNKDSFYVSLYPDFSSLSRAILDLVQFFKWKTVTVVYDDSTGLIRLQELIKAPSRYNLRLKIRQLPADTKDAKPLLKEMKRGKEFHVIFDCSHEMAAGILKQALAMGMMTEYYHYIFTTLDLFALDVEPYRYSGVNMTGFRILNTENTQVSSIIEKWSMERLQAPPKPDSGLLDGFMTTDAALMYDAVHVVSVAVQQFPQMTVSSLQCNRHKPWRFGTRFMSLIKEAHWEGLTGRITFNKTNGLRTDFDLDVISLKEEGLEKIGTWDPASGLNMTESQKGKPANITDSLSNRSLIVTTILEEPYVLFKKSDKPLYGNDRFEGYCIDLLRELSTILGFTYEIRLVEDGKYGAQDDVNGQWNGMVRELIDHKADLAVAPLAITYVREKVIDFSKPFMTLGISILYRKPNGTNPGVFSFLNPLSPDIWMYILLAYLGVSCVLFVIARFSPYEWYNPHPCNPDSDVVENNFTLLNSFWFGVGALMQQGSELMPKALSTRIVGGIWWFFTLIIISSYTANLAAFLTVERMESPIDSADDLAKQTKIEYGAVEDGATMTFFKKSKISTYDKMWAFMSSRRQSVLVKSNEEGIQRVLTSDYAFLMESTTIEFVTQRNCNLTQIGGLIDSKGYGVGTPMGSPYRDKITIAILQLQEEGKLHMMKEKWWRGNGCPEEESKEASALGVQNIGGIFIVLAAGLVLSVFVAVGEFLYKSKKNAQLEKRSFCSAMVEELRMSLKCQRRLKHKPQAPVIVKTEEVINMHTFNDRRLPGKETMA

[10] = molecular target: T2, Glutamate NMDA receptor; Grin1/Grin2a (Rattus norvegicus) (UniProt P35439+Q00959); experiment: Agonist activity at rat NR1/NR2A receptor expressed in BHK21 cells assessed as increase in intracellular calcium levels by FLIPR assay; conditions: BHK-21
[11] = molecular target: T1, Glutamate NMDA receptor; Grin1/Grin2a; experiment: Agonist activity at rat NR1/NR2A receptor expressed in BHK21 cells assessed as change in intracellular calcium levels by FLIPR assay; type: functional, cell-based, BHK-21
Glutamate NMDA receptor [12] = experiment: Displacement of [3H]CPP from NMDA receptor in Sprague-Dawley rat brain membranes; type: cell membranes, Membrane
[13] = molecular target: T2, Glutamate NMDA receptor; Grin1/Grin2a (Rattus norvegicus); experiment: Agonist activity at rat NR1/NR2A receptor expressed in BHK21 cells assessed as change in intracellular calcium levels by FLIPR assay relative to (S)-Glu; type: functional, cell-based; conditions: BHK-21

Row | SMILES | Ki (Glutamate NMDA receptor [1]) | IC50 [2] | pIC50 [2] | also measured
1 | C=C(C)[C@H]1CN[C@H](C(=O)O)[C@H]1CC(=O)O [KAINIC ACID] | > 100 µM | 4 µM |  | 
2 | Cc1onc(O)c1CC(N)C(=O)O (racemic) [(R,S)-AMPA] |  | 0.039 µM |  | 
3 | NC(CCc1nonc1O)C(=O)O (racemic) |  |  |  | Activity [10]: inactive
4 | NC(Cc1nonc1O)C(=O)O (stereo in doubt; (-)-10) [2-AMINO-3-(4-HYDROXY-1,2,5-OXADIAZOL-3-YL)PROPIONIC ACID (STRUCTURAL MIX)] | > 100 µM | 0.76 µM |  | EC50 (Glutamate receptor 2 [3]): 43 µM; Ki ([5]; sf9): > 100 µM; Ki [6]: 77 µM; EC50 [11]: > 500 µM; Ki (Glutamate receptor 2 [8]): 0.25 µM; Ki ([9]; sf9): > 100 µM
5 | NC(Cc1nonc1O)C(=O)O (racemic) [2-AMINO-3-(4-HYDROXY-1,2,5-OXADIAZOL-3-YL)PROPIONIC ACID (STRUCTURAL MIX)] | 16 µM | 0.17 µM | 6.76 | 
6 | NC(CCCc1nonc1O)C(=O)O (racemic) [2-AMINO-5-(4-HYDROXY-1,2,5-OXADIAZOL-3-YL)PENTANOIC ACID (STRUCTURAL MIX)] | 2.9 µM | 61 µM | 4.22 | 
7 | NC(CCCc1nonc1O)C(=O)O (racemic) |  |  |  | Activity [10]: inactive
8 | NC(Cc1nonc1O)C(=O)O (single isomer, unassigned; (+)) [2-AMINO-3-(4-HYDROXY-1,2,5-OXADIAZOL-3-YL)PROPIONIC ACID (STRUCTURAL MIX)] | 13 µM | 0.11 µM | 6.95 | EC50 (Glutamate receptor 2 [3]): 9.4 µM; Ki [5]: > 100 µM; Ki [6]: 8.1 µM; EC50 [11]: 47 µM; Ki (Glutamate receptor 2 [8]): 0.043 µM; Ki [9]: > 100 µM
9 | NC(Cc1nsnc1O)C(=O)O (racemic) |  | 0.12 µM |  | Ki (Glutamate NMDA receptor [12]): > 100 µM
10 | NC(CCCc1nonc1O)C(=O)O (stereo in doubt; (+)-18) [2-AMINO-5-(4-HYDROXY-1,2,5-OXADIAZOL-3-YL)PENTANOIC ACID (STRUCTURAL MIX)] | 22 µM | 42 µM | 4.37 | EC50 (Glutamate receptor 2 [3]): 491 µM; EC50 [4]: Not Active; Ki [5]: > 1000 µM; Ki [6]: 67 µM; IC50 [7]: 245 µM; Ki (Glutamate receptor 2 [8]): 20 µM; Ki [9]: > 1000 µM
11 | NC(CCCc1nonc1O)C(=O)O (stereo in doubt; (-)-18) [2-AMINO-5-(4-HYDROXY-1,2,5-OXADIAZOL-3-YL)PENTANOIC ACID (STRUCTURAL MIX)] | 1.8 µM | > 100 µM |  | IC50 [7]: 28 µM
12 | NC(Cc1nonc1O)C(=O)O (single isomer, unassigned; (+)) |  |  |  | Imax [13]: 0.76

More lines, main results first:

Row | Ki (Glutamate NMDA receptor [1]) | IC50 [2] | pIC50 [2] | SMILES | also measured
13 | 6.3 µM | > 100 µM |  | NC(C(=O)O)c1nonc1O (racemic) | 
14 | 73 µM | 42 µM | 4.37 | NC(CCc1nonc1O)C(=O)O (stereo in doubt; (+)-15) [2-AMINO-4-(4-HYDROXY-1,2,5-OXADIAZOL-3-YL)BUTANOIC ACID (STRUCTURAL MIX)] | EC50 (Glutamate receptor 2 [3]): 489 µM; EC50 [4]: Not Active; Ki [5]: 41 µM; Ki [6]: 53 µM; IC50 [7]: 1020 µM; Ki (Glutamate receptor 2 [8]): 40 µM; Ki [9]: > 1000 µM
15 | 4.9 µM | 77 µM | 4.12 | NC(CCc1nonc1O)C(=O)O (racemic) [2-AMINO-4-(4-HYDROXY-1,2,5-OXADIAZOL-3-YL)BUTANOIC ACID (STRUCTURAL MIX)] | 
16 | 6.2 µM | > 100 µM |  | CN[C@H](CC(=O)O)C(=O)O [N-METHYL-D-ASPARTIC ACID (NMDA)] | 
17 | 3.4 µM | > 100 µM |  | NC(CCc1nonc1O)C(=O)O (single isomer, unassigned; (-)) [2-AMINO-4-(4-HYDROXY-1,2,5-OXADIAZOL-3-YL)BUTANOIC ACID (STRUCTURAL MIX)] | IC50 [7]: 49 µM
